System: mouse plasma stability, LC-MS/MS, 48 h
Test: Inhibitors of HPGD: Mouse Plasma Stability Profiling
Conditions: at 2 µM; active compounds read high
Source text: Human 15-Hydroxyprostaglandin dehydrogenase (HPGD) catalyzes the inactivation of prostaglandin E2, and plays a major role in cancer biology by antagonizing the oncogenic potential of cyclooxygenase type 2 (COX2). Follow-up assays are available, based on absorbance/fluorescence increase of NADH with the substrate 15-OH prostaglandin E2. Please see summary AID for more information on this project. After qHTS, hits were confirmed in follow-up assays, and leads were optimized through SAR. The resulting lead compound was further characterized through a battery ADME-Tox experiments, and this assay describes its stability in mouse plasma. NIH Chemical Genomics Center [NCGC] NIH Molecular Libraries Probe Centers Network [MLPCN] MLPCN Grant: MH084681-02 Assay Submitter (PI): Udo Oppermann, Structural Genomics Consortium
2microM of compound is incubated in mouse plasma, the reference compound is procaine. Compounds are incubated at 37 deg C for the pre-determined time periods and the when aliquots are removed. Samples are analyzed with LC-MS/MS.

| SMILES | percent remaining [%] |
| --- | --- |
| Cc1cc(-c2nnc3n2CCCCC3)c(C)n1-c1ccccc1 | 98 |
| Cc1cccc(-n2cnc3cc(C(=O)N4CCCCC4)ccc32)c1 | 98 |

From PubChem BioAssay AID504844 (National Center for Advancing Translational Sciences (NCATS), 2011)
